Results as given in article PMC3114464 (Biochemistry, 2011).

What was measured:
Type in all cases: binding
[1] = target: IsdA-N1 (IsdA NEAT domain) (Staphylococcus aureus, UniProt Q7A655)
[2] = target: IsdB-N2 (C-terminal NEAT domain of IsdB) (Staphylococcus aureus, UniProt Q7A656); test: […] Å crystal structure
IsdB-N2 M362L = IsdB-N2 M362L (Staphylococcus aureus, UniProt Q7A656, M362L); test: Trp fluorescence quenching

## C=CC1=C(C)C2=Cc3c(C=C)c(C)c4[n]3[Fe][n]3c(c(C)c(CCC(=O)O)c3=CC3=NC(=C4)C(C)=C3CCC(=O)O)=CC1=N2 [heme]
[1]
  stopped-flow Soret spectroscopy of heme transfer from holo-IsdB-N2 to apo-IsdA-N: 82 ± 6 s^–1
[2]
  Kd: < 380 nM
IsdB-N2 M362L
  Kd: < 490 nM
